Earlier results as cited in publication PMC8739840, “Structural and Molecular Insight into Piperazine and Piperidine Derivatives as Histamine H3 and Sigma-1 Receptor Antagonists with Promising Antinociceptive Properties” (ACS Chemical Neuroscience, 2021).

Tests used:
[1] = quoted for comparison of basicity; no reference given; cited from earlier work
[2] = tested on: σ2R; details: read-out: σ2R IC50 (binding); cited from earlier work
[3] = tested on: σ2 receptor; details: cited from earlier work
[4] = molecular target: σ1 receptor; details: read-out: EC50, functional agonism of σ1 receptor-mediated calcium flux; cited from earlier work

SMILES	pKa [1]	IC50 [2] [nM]	agonist activity in σ2 receptor-mediated calcium flux functional assay [3]	IC50 ([3]; read-out: IC50, decrease of haloperidol-induced calcium release (antagonist)) [nM]	EC50 [4] [nM]
CN(C)c1ccncc1 [DMAP]	9.2	–	–	–	–
Clc1ccc(CCCOCCCN2CCCCC2)cc1 [PIT, Pitolisant]	–	8.55	did not elicit agonist activity	10000	402
